Experimental data as given in the supplement of paper PMC4862054.

What was measured:
Conditions in all cases: incubation time: 72 h
BT-474 [1] = assay: normalised response (% of control), CellTox Green; higher = less cell death (100 = DMSO, 0 = benzethonium chloride kill control)
Procedure, shortened: (§1)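 Plates were normalised with 0.1 % DMSO as 100 and a positive kill control as 0. Breast cancer cell lines in 20 µl suspension had been seeded into 384-well plates with compound at 5 concentrations in 10-fold steps over a compound-specific 10,000-fold range, incubated 72 h, and read for CellTox Green fluorescence (485/520 nm) followed by CellTiter-Glo luminescence. Each value is the normalised signal at a single concentration.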

BT-549 [2] = assay: as above
Procedure, shortened: as §1

CAL-120 [3] = assay: as above
Procedure, shortened: as §1

CAL-51 [4] = assay: as above
Procedure, shortened: as §1

CAL-85-1 [5] = assay: as above
Procedure, shortened: as §1

DU-4475 [6] = assay: as above
Procedure, shortened: as §1

HCC1143 [7] = assay: as above
Procedure, shortened: as §1

HCC1599 [8] = assay: as above
Procedure, shortened: as §1

MCF-10A [9] = assay: as above
Procedure, shortened: as §1

MDA-MB-231 [10] = assay: as above
Procedure, shortened: as §1

MDA-MB-436 [11] = assay: as above
Procedure, shortened: as §1

MDA-MB-453 [12] = assay: as above
Procedure, shortened: as §1

MDA-MB-468 [13] = assay: as above
Procedure, shortened: as §1

MFM-223 [14] = assay: as above
Procedure, shortened: as §1

BT-474 [15] = assay: normalised response (% of control), CellTiter-Glo; higher = more viable cells (100 = DMSO, 0 = benzethonium chloride kill control)
Experimental: (§2)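 DSRT, 72 h incubation, CellTox Green / CellTiter-Glo readout. Signal is normalised to DMSO and benzethonium chloride controls. Value is the normalised response at the highest dose.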

BT-549 [16] = assay: as above
Experimental: as §2

CAL-120 [17] = assay: as above
Experimental: as §2

CAL-148 [18] = assay: as above
Experimental: as §2

CAL-51 [19] = assay: as above
Experimental: as §2

CAL-85-1 [20] = assay: as above
Experimental: as §2

DU-4475 [21] = assay: as above
Experimental: as §2

HCC1143 [22] = assay: as above
Experimental: as §2

HCC1599 [23] = assay: as above
Experimental: as §2

HCC1937 [24] = assay: as above
Experimental: as §2

HDQ-P1 [25] = assay: as above
Experimental: as §2

Hs578T [26] = assay: as above
Experimental: as §2

MCF-10A [27] = assay: as above
Experimental: as §2

MDA-MB-231 [28] = assay: as above
Experimental: as §2

MDA-MB-436 [29] = assay: as above
Experimental: as §2

MDA-MB-453 [30] = assay: as above
Experimental: as §2

MDA-MB-468 [31] = assay: as above
Experimental: as §2

MFM-223 [32] = assay: as above
Experimental: as §2

SK-BR-3 [33] = assay: as above
Experimental: as §2

CAL-148 [34] = assay: normalised response (% of control), CellTox Green; higher = less cell death (100 = DMSO, 0 = benzethonium chloride kill control)
Procedure, shortened: as §1

HCC1937 [35] = assay: as above
Procedure, shortened: as §1

HDQ-P1 [36] = assay: as above
Procedure, shortened: as §1

Hs578T [37] = assay: as above
Procedure, shortened: as §1

BT-474 [38] = assay: normalised response (% of control), CellTiter-Glo; higher = more viable cells (100 = DMSO, 0 = benzethonium chloride kill control); remark: listed apart in the source
Procedure, shortened: as §1

BT-549 [39] = assay: as above; remark: listed apart in the source
Procedure, shortened: as §1

CAL-120 [40] = assay: as above; remark: listed apart in the source
Procedure, shortened: as §1

CAL-148 [41] = assay: as above; remark: listed apart in the source
Procedure, shortened: as §1

CAL-51 [42] = assay: as above; remark: listed apart in the source
Procedure, shortened: as §1

CAL-85-1 [43] = assay: as above; remark: listed apart in the source
Procedure, shortened: as §1

DU-4475 [44] = assay: as above; remark: listed apart in the source
Procedure, shortened: as §1

HCC1143 [45] = assay: as above; remark: listed apart in the source
Procedure, shortened: as §1

HCC1599 [46] = assay: as above; remark: listed apart in the source
Procedure, shortened: as §1

HCC1937 [47] = assay: as above; remark: listed apart in the source
Procedure, shortened: as §1

HDQ-P1 [48] = assay: as above; remark: listed apart in the source
Procedure, shortened: as §1

Hs578T [49] = assay: as above; remark: listed apart in the source
Procedure, shortened: as §1

MCF-10A [50] = assay: as above; remark: listed apart in the source
Procedure, shortened: as §1

MDA-MB-231 [51] = assay: as above; remark: listed apart in the source
Procedure, shortened: as §1

MDA-MB-436 [52] = assay: as above; remark: listed apart in the source
Procedure, shortened: as §1

MDA-MB-453 [53] = assay: as above; remark: listed apart in the source
Procedure, shortened: as §1

MDA-MB-468 [54] = assay: as above; remark: listed apart in the source
Procedure, shortened: as §1

MFM-223 [55] = assay: as above; remark: listed apart in the source
Procedure, shortened: as §1

SK-BR-3 [56] = assay: as above; remark: listed apart in the source
Procedure, shortened: as §1

| SMILES | normalised response (BT-474 [1]) [%] | normalised response (BT-549 [2]) [%] | normalised response (CAL-120 [3]) [%] | normalised response (CAL-51 [4]) [%] | normalised response (CAL-85-1 [5]) [%] | normalised response (DU-4475 [6]) [%] | normalised response (HCC1143 [7]) [%] | normalised response (HCC1599 [8]) [%] | normalised response (MCF-10A [9]) [%] | normalised response (MDA-MB-231 [10]) [%] | normalised response (MDA-MB-436 [11]) [%] | normalised response (MDA-MB-453 [12]) [%] | normalised response (MDA-MB-468 [13]) [%] | normalised response (MFM-223 [14]) [%] | normalised response (BT-474 [15]) [%] | normalised response (BT-549 [16]) [%] | normalised response (CAL-120 [17]) [%] | normalised response (CAL-148 [34]) [%] | normalised response (HCC1937 [35]) [%] | normalised response (HDQ-P1 [36]) [%] | other results |
| --- | --- | --- | --- | --- | --- | --- | --- | --- | --- | --- | --- | --- | --- | --- | --- | --- | --- | --- | --- | --- | --- |
| CC(C)(C)c1nc(-c2cccc(NS(=O)(=O)c3c(F)cccc3F)c2F)c(-c2ccnc(N)n2)s1 [Dabrafenib] (2500 nM) | 103 | 94.2 | 78.8 | 106 | 83.9 | 70.1 | 120 | 103 | 102 | 97.8 | 107 | 96.6 | 87 | 104 | 100 | 92.7 | 75.8 |  |  |  | normalised response (CAL-148 [18]): 108%; normalised response (CAL-51 [19]): 72.6%; normalised response (CAL-85-1 [20]): 108%; normalised response (DU-4475 [21]): 0.71%; normalised response (HCC1143 [22]): 95%; normalised response (HCC1599 [23]): 89.4%; normalised response (HCC1937 [24]): 96.8%; normalised response (HDQ-P1 [25]): 94%; normalised response (Hs578T [26]): 88%; normalised response (MCF-10A [27]): 96%; normalised response (MDA-MB-231 [28]): 101%; normalised response (MDA-MB-436 [29]): 92.3%; normalised response (MDA-MB-453 [30]): 95.4%; normalised response (MDA-MB-468 [31]): 89.2%; normalised response (MFM-223 [32]): 93.1%; normalised response (SK-BR-3 [33]): 80.8% |
| Cc1nc(C(=O)NCC(=O)O)c(O)c2ccc(Oc3ccccc3)cc12 [FG-4592] (10000 nM) | 98 | 94.7 | 107 | 105 | 78.6 | 97.7 | 118 | 99.9 | 111 | 95.7 | 93.9 | 95.2 | 125 | 104 | 94.5 | 92 | 102 | 89.3 | 72.6 | 114 | normalised response (CAL-148 [18]): 113%; normalised response (CAL-51 [19]): 97.7%; normalised response (CAL-85-1 [20]): 101%; normalised response (DU-4475 [21]): 97%; normalised response (HCC1143 [22]): 98.5%; normalised response (HCC1599 [23]): 92%; normalised response (HCC1937 [24]): 100%; normalised response (HDQ-P1 [25]): 92%; normalised response (Hs578T [26]): 109%; normalised response (MCF-10A [27]): 107%; normalised response (MDA-MB-231 [28]): 96.1%; normalised response (MDA-MB-436 [29]): 98.8%; normalised response (MDA-MB-453 [30]): 97.4%; normalised response (MDA-MB-468 [31]): 110%; normalised response (MFM-223 [32]): 103%; normalised response (SK-BR-3 [33]): 101% |
| CN(C)C(=N)NC(=N)N [Metformin] (100000 nM) | 91.1 | 76.3 | 94.6 | 86.8 | 125 | 90.3 |  | 76 | 89.2 | 69.3 | 93.3 | 90.5 |  | 96.3 | 95.5 | 99.3 | 108 | 98.1 | 95.3 | 99.2 | normalised response (Hs578T [37]): 52.6%; normalised response (CAL-148 [18]): 104%; normalised response (CAL-51 [19]): 82.5%; normalised response (CAL-85-1 [20]): 104%; normalised response (DU-4475 [21]): 79.1%; normalised response (HCC1143 [22]): 93%; normalised response (HCC1599 [23]): 108%; normalised response (HCC1937 [24]): 86.8%; normalised response (HDQ-P1 [25]): 95.4%; normalised response (Hs578T [26]): 92.6%; normalised response (MCF-10A [27]): 75.6%; normalised response (MDA-MB-231 [28]): 91.2%; normalised response (MDA-MB-436 [29]): 102%; normalised response (MDA-MB-453 [30]): 89.9%; normalised response (MDA-MB-468 [31]): 86.1%; normalised response (MFM-223 [32]): 90.3%; normalised response (SK-BR-3 [33]): 80% |
| CC[C@H](CO)Nc1nc(NCc2ccccc2)c2ncn(C(C)C)c2n1 [Seliciclib] (100 nM) | 97.1 | 102 | 98.4 | 105 | 92.4 | 101 | 82.7 | 109 | 104 | 96 | 61.4 | 104 | 102 | 107 |  |  |  | 108 | 118 | 105 | normalised response (Hs578T [37]): 100%; normalised response (BT-474 [38]): 105%; normalised response (BT-549 [39]): 102%; normalised response (CAL-120 [40]): 97.6%; normalised response (CAL-148 [41]): 112%; normalised response (CAL-51 [42]): 101%; normalised response (CAL-85-1 [43]): 98.6%; normalised response (DU-4475 [44]): 104%; normalised response (HCC1143 [45]): 106%; normalised response (HCC1599 [46]): 110%; normalised response (HCC1937 [47]): 94.2%; normalised response (HDQ-P1 [48]): 101%; normalised response (Hs578T [49]): 104%; normalised response (MCF-10A [50]): 97.1%; normalised response (MDA-MB-231 [51]): 99.8%; normalised response (MDA-MB-436 [52]): 105%; normalised response (MDA-MB-453 [53]): 114%; normalised response (MDA-MB-468 [54]): 102%; normalised response (MFM-223 [55]): 107%; normalised response (SK-BR-3 [56]): 106% |
| C=CCN(/C=C1/C(=O)O[C@H](COC)[C@@]2(C)C1=C(O)C(=O)C1=C2[C@H](OC(C)=O)C[C@]2(C)C(=O)CC[C@@H]12)CC=C [Sonolisib] (100 nM) | 96.5 | 108 | 101 | 102 | 106 | 106 | 117 | 115 | 72.8 | 110 | 107 | 106 | 112 | 109 |  |  |  | 98.6 | 121 | 63.5 | normalised response (Hs578T [37]): 73.7%; normalised response (BT-474 [38]): 106%; normalised response (BT-549 [39]): 106%; normalised response (CAL-120 [40]): 109%; normalised response (CAL-148 [41]): 116%; normalised response (CAL-51 [42]): 85.2%; normalised response (CAL-85-1 [43]): 109%; normalised response (DU-4475 [44]): 105%; normalised response (HCC1143 [45]): 105%; normalised response (HCC1599 [46]): 104%; normalised response (HCC1937 [47]): 99.7%; normalised response (HDQ-P1 [48]): 102%; normalised response (Hs578T [49]): 94.7%; normalised response (MCF-10A [50]): 108%; normalised response (MDA-MB-231 [51]): 107%; normalised response (MDA-MB-436 [52]): 106%; normalised response (MDA-MB-453 [53]): 102%; normalised response (MDA-MB-468 [54]): 105%; normalised response (MFM-223 [55]): 107%; normalised response (SK-BR-3 [56]): 107% |
